Results reported in publication doi:10.1101/2025.11.12.688093v2 (biorxiv, 2026).

How the values were obtained:
Assay type in all cases: biochemical
[1] = molecular target: recombinant CK2 (casein kinase 2) (Homo sapiens, UniProt P68400); assay: Kinase-Glo residual ATP luminescence
CDK4/CycD1 = CDK4/CycD1 (Homo sapiens, UniProt P11802); assay: kinase panel, HTRF or ADP-Glo, single dose; settings: read-out: % inhibition at 1 μM
CDK9/CycT1 = CDK9/CycT1 (Homo sapiens, UniProt P50750); assay: kinase panel, HTRF or ADP-Glo, single dose; settings: read-out: % inhibition at 10 μM
CDK3/CycE1 = CDK3/CycE1 (Homo sapiens, UniProt Q00526); assay: kinase panel, HTRF or ADP-Glo, single dose; settings: read-out: % inhibition at 10 μM
CDK2/CycE1 = CDK2/CycE1 (Homo sapiens, UniProt P24941); assay: kinase panel, HTRF or ADP-Glo, single dose; settings: read-out: % inhibition at 10 μM
CDK1/CycA2 = CDK1/CycA2 (Homo sapiens, UniProt P06493); assay: kinase panel, HTRF or ADP-Glo, single dose; settings: read-out: % inhibition at 10 μM
CDK1/CycA2, sequence (P20248 whole entry): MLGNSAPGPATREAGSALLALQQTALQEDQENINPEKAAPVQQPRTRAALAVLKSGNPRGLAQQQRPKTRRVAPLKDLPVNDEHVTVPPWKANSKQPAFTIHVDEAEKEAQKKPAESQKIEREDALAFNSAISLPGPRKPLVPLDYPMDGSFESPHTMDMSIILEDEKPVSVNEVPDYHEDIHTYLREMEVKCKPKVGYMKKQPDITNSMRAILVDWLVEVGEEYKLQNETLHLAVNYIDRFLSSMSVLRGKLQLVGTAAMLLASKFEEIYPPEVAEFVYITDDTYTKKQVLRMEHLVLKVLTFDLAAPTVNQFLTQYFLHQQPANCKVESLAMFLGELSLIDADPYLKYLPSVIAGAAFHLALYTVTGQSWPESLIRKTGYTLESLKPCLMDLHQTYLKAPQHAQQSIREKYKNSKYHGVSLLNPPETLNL
CDK1/CycA2, sequence (P06493 whole entry): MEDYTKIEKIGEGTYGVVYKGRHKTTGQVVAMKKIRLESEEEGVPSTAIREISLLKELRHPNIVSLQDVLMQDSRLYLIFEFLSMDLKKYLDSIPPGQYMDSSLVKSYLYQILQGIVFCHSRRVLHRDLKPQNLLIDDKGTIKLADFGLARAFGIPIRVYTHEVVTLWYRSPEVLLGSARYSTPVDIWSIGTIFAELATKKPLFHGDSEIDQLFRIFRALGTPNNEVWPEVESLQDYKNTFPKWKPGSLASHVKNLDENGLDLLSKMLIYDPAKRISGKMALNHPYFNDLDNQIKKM

recombinant CK2 (casein kinase 2), sequence (P68400 whole entry): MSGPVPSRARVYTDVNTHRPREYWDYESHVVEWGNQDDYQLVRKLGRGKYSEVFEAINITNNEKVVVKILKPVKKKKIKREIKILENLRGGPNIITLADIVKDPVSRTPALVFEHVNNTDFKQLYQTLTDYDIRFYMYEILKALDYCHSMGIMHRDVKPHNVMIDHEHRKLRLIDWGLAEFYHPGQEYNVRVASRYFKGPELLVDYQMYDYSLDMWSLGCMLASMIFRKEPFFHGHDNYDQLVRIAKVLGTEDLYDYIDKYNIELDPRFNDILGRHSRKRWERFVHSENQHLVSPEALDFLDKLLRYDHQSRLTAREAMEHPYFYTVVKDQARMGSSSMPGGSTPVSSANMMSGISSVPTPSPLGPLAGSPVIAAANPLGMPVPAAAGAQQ
recombinant CK2 (casein kinase 2), sequence (P67870 2-215 partner): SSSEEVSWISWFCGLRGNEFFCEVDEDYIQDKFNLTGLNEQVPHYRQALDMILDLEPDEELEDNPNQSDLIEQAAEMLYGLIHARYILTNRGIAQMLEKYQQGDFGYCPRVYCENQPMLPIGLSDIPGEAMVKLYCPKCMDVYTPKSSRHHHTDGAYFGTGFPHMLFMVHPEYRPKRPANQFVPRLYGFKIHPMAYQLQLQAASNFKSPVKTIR
CDK3/CycE1, sequence (Q00526 whole entry): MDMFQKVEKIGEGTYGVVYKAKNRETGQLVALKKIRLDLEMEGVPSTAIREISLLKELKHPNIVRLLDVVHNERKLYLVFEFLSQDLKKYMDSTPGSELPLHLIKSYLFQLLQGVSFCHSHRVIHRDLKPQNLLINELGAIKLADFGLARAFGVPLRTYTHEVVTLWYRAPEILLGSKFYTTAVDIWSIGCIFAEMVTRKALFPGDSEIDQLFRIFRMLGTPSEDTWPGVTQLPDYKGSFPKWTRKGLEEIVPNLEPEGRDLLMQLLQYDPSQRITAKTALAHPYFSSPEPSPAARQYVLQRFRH
CDK3/CycE1, sequence (P24864 whole entry, further chain): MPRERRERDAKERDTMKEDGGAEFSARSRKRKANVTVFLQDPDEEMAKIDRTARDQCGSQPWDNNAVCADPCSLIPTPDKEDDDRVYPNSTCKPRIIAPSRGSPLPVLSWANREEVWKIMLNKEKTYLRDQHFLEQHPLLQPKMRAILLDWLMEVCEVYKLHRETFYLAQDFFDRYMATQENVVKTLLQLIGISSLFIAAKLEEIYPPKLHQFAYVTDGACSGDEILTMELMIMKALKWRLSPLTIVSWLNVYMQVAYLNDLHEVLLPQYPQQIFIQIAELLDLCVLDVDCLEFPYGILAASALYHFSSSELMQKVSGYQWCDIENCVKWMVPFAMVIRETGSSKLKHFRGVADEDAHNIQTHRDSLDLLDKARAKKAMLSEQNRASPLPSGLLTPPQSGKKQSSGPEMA
CDK9/CycT1, sequence (P50750 whole entry): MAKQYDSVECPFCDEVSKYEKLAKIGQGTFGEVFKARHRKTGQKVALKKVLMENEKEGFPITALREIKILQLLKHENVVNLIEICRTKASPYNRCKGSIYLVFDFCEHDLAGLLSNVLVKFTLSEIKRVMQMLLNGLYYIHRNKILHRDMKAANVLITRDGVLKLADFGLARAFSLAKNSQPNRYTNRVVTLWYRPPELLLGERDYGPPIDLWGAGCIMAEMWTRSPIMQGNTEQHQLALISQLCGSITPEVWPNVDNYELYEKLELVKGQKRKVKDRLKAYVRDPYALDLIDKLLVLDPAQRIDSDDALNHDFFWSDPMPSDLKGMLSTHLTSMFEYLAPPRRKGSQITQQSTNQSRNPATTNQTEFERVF
CDK9/CycT1, sequence (O60563 whole entry partner): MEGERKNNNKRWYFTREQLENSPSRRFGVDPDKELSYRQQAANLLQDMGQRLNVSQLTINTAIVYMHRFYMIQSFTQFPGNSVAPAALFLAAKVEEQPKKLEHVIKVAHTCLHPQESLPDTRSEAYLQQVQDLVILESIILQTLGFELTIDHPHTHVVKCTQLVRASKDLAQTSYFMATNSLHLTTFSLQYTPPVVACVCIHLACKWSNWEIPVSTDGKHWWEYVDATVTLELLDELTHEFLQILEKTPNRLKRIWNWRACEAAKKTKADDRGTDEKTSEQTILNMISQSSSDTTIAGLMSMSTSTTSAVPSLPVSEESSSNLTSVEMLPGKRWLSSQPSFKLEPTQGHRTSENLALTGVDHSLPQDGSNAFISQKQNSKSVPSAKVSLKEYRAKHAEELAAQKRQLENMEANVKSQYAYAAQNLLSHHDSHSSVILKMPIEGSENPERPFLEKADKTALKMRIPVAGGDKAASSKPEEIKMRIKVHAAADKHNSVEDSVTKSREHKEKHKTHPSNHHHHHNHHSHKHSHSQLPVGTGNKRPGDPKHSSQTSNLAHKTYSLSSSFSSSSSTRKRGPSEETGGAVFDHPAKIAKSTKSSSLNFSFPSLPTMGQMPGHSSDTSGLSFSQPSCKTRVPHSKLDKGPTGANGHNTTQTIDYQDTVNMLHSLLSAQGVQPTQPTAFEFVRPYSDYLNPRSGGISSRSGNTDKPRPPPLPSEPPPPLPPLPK
CDK4/CycD1, sequence (P11802 2-303): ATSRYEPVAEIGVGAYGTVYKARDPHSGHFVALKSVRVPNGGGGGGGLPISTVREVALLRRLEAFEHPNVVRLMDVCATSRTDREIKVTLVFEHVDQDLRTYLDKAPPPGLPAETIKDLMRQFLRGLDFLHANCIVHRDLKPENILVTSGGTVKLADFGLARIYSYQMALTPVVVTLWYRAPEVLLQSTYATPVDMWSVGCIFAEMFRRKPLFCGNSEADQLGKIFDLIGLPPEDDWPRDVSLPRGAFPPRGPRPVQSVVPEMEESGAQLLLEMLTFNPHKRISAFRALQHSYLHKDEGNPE
CDK4/CycD1, sequence (P24385 whole entry partner): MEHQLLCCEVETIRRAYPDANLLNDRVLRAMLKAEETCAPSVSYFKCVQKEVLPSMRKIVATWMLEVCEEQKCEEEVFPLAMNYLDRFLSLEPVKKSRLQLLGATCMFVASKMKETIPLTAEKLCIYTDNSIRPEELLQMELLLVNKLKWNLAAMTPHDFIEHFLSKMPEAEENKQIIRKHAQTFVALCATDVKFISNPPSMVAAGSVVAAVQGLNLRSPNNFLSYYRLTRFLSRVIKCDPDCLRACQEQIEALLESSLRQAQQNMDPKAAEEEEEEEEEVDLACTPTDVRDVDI

| SMILES | IC50 [1] [nM] | inhibition at 1 µM (CDK4/CycD1) [%] | inhibition at 10 µM (CDK9/CycT1) [%] | inhibition at 10 µM (CDK3/CycE1) [%] | inhibition at 10 µM (CDK2/CycE1) [%] | inhibition at 10 µM (CDK1/CycA2) [%] |
| --- | --- | --- | --- | --- | --- | --- |
| N=C1NC(=O)/C(=C/c2ccc(O)c([N+](=O)[O-])c2)S1 [compound 2, Compound 2] | 156 | 10.2 |  |  |  |  |
| Cc1cccc(NCN2C(=O)S/C(=C\c3ccccc3)C2=O)c1 [compound 3, Compound 3] | 199 |  | 36.1 | 15.3 | 12.4 | 14.7 |
